For twelve compounds, IC50 results are on record in US20260070945A1, “MACROCYCLIC IMMUNOMODULATORS” (Bristol-Myers Squibb Company, priority 2022, published 2026).

The IC50 is the concentration needed to halve the response being measured.

Each structure is given as a SMILES string. *1 amine or outer side, *2 acyl side, *3 side chain or, on linkers, in order; H or OH if unused. Where a SMILES comes first, the peptide text is derived from it. Bridges are numbered along the chain shown (N, C = ends). [ ]: non-standard residue; d: D form. The star is where a group is joined. ξ: configuration not given here. Phe(3-CF3) = N[C@@H](Cc1cccc(C(F)(F)F)c1)C(=O)O; Ala(morpholin-4-yl) = N[C@@H](CN1CCOCC1)C(=O)O; Phe(4-COOH) = N[C@@H](Cc1ccc(C(=O)O)cc1)C(=O)O; Bip = N[C@@H](Cc1ccc(-c2ccccc2)cc1)C(=O)O; NH(CH2)14COOH = O=C(O)CCCCCCCCCCCCCCN*; Phe(3-Me) = Cc1cccc(C[C@H](N)C(=O)O)c1; NH(CH2)12COOH = O=C(O)CCCCCCCCCCCCN*; ξγGlu = O=C(O)C(CCC(=O)[*:2])N[*:1]; Val(3-OH) = CC(C)(O)[C@H](N)C(=O)O; aIle = CC[C@@H](C)[C@H](N)C(=O)O; 4Pal = N[C@@H](Cc1ccncc1)C(=O)O; Cha = N[C@@H](CC1CCCCC1)C(=O)O; Cit = NC(=O)NCCC[C@H](N)C(=O)O; Ile(3ξ) = CCC(C)[C@H](N)C(=O)O; Thr(3ξ) = CC(O)[C@H](N)C(=O)O; Carboxymethyl = O=C(O)C*; NMeA = CN[C@@H](C)C(=O)O; Orn = NCCC[C@H](N)C(=O)O; Aun = NCCCCCCCCCCC(=O)O; Dab = NCC[C@H](N)C(=O)O; AEEA = NCCOCCOCC(=O)O

In the first test the target is T1, PD-1/PD-L1 interaction (PE-labeled human PD-L1-Ig binding to Jurkat cell line over-expressing human PD-1) (Homo sapiens, UniProt Q15116).
T1 construct: expressed in transfected cells; host or cells: Jurkat
T1 sequence (Q15116 25-288): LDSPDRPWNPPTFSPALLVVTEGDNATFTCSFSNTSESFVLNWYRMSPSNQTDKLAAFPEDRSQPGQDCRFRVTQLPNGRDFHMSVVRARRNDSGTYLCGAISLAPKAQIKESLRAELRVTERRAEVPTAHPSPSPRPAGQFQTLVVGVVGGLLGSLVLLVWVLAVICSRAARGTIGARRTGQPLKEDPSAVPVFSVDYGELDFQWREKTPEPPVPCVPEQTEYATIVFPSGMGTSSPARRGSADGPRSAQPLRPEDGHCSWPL
The test can be described thus: Jurkat-PD-1 Cell Binding High-Content Screening Assay (CBA). As to conditions: Jurkat-hPD-1 cells, PE-labeled PD-L1-Ig 20 nM final; read-out: Jurkat HPD1 PDL1 IC50. The method in brief: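 Jurkat cells overexpressing human PD-1 (8×10^3/well, DMEM + 10% FCS) preincubated with compound 2 h at 37 °C, then PE-labelled human PD-L1-Ig (20 nM final) for 1 h. Cells fixed in paraformaldehyde with Hoechst 33342; bound PD-L1 quantified by high-content imaging.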
As for `CC(C)C[C@@H]1NC(=O)[C@H](Cc2c[nH]c3ccccc23)NC(=O)[C@H](CC(=O)O)NC(=O)[C@H](Cc2ccncc2)NC(=O)[C@H](Cc2ccc(OCC(=O)O)cc2)NC(=O)CSC[C@@H](C(=O)NCCOCCOCC(=O)N[C@@H](CCCN)C(=O)NCCCCCCCCCCC(=O)O)NC(=O)[C@H](CCCNC(N)=O)NC(=O)[C@H](C(C)C)NC(=O)[C@H](CC2CCCCC2)NC(=O)[C@H](CCN)NC(=O)[C@@H](CC(C)C)NC(=O)[C@H](C)N(C)C(=O)[C@H](C(C)C)NC(=O)[C@H](Cc2ccc(-c3ccccc3)cc2)NC1=O` [Example 2168] ({CH2CO}-Y(Carboxymethyl)[4Pal]DWL[Bip]V[NMeA][dL][Dab][Cha]V[Cit]C[AEEA][Orn][Aun]-OH; thioether N-14), the IC50 was 9 nM. Consider `Cc1cccc(C[C@@H]2NC(=O)[C@H](CC(=O)O)NC(=O)[C@H](Cc3ccc(OCC(=O)O)cc3)NC(=O)[C@H](CCCNC(=N)N)NC(=O)CSC[C@@H](C(=O)N[C@@H](CCN)C(=O)NCCCCCCCCCCC(=O)O)NC(=O)[C@H](CCCCN)NC(=O)[C@H](C(C)C)NC(=O)[C@H](CC3CCCCC3)NC(=O)[C@H](CCN)NC(=O)[C@@H](CC(C)C)NC(=O)[C@H](C)N(C)C(=O)[C@H](CCCNC(N)=O)NC(=O)[C@H](Cc3ccc(-c4ccccc4)cc3)NC(=O)[C@H](C(C)C)NC2=O)c1` [Example 2212] ({CH2CO}-RY(Carboxymethyl)D[Phe(3-Me)]V[Bip][Cit][NMeA][dL][Dab][Cha]VKC[Dab][Aun]-OH; thioether N-14), for which the concentration for half-maximal inhibition (IC50) was 16.1 nM. Take `CC(C)C[C@H]1NC(=O)[C@H](C)N(C)C(=O)[C@H](C(C)C)NC(=O)[C@H](Cc2ccc(-c3ccccc3)cc2)NC(=O)[C@H](C(C)C)NC(=O)[C@H](Cc2c[nH]c3ccccc23)NC(=O)[C@H](CC(=O)O)NC(=O)[C@H](Cc2ccc(C(=O)O)cc2)NC(=O)[C@H](Cc2ccncc2)NC(=O)CSC[C@@H](C(=O)N[C@@H](CCN)C(=O)NCCCCCCCCCCCCCCC(=O)O)NC(=O)[C@H](CO)NC(=O)[C@H](C(C)C)NC(=O)[C@H](CC2CCCCC2)NC(=O)[C@H](CCN)NC1=O` [Example 2004] ({CH2CO}-[4Pal][Phe(4-COOH)]DWV[Bip]V[NMeA][dL][Dab][Cha]VSC[Dab]-{NH(CH2)14COOH}; thioether N-14): the IC50 was 181 nM. Take `CC(=O)NCCCC[C@@H]1NC(=O)[C@H](Cc2ccc(-c3ccccc3)cc2)NC(=O)[C@H](Cc2ccc(O)cc2)NC(=O)[C@H](Cc2cccc(C)c2)NC(=O)[C@H](CC(=O)O)NC(=O)[C@H](Cc2ccc(OCC(=O)O)cc2)NC(=O)[C@H](CCN)NC(=O)CSC[C@@H](C(=O)N[C@@H](CCN)C(=O)NCCCCCCCCCCC(=O)O)NC(=O)[C@H](C(C)O)NC(=O)[C@H](C(C)C)NC(=O)[C@H](CC2CCCCC2)NC(=O)[C@H](CCN)NC(=O)[C@@H](CC(C)C)NC(=O)[C@H](C)N(C)C1=O` (stereo partly drawn) [Example 2421] ({CH2CO}-[Dab]Y(Carboxymethyl)D[Phe(3-Me)]Y[Bip]K(Ac)[NMeA][dL][Dab][Cha]V[Thr(3ξ)]C[Dab][Aun]-OH; thioether N-14): the IC50 was found to be 14.6 nM. For `CC[C@@H](C)[C@@H]1NC(=O)[C@H](Cc2ccc(-c3ccccc3)cc2)NC(=O)[C@H](C(C)C)NC(=O)[C@H](Cc2c[nH]c3ccccc23)NC(=O)[C@H](CC(=O)O)NC(=O)[C@H](Cc2ccc(O)cc2)NC(=O)[C@H](Cc2ccncc2)NC(=O)CSC[C@@H](C(=O)N[C@@H](CCN)C(=O)NCCCCCCCCCCC(=O)O)NC(=O)[C@H](C(C)O)NC(=O)[C@H](C(C)C)NC(=O)[C@H](CC2CCCCC2)NC(=O)[C@H](CCN)NC(=O)[C@@H](CC(C)C)NC(=O)[C@H](C)N(C)C1=O` (stereo partly drawn) [Example 2036] ({CH2CO}-[4Pal]YDWV[Bip][aIle][NMeA][dL][Dab][Cha]V[Thr(3ξ)]C[Dab][Aun]-OH; thioether N-14), the IC50 was 43.9 nM. On the same count and under the same terms, next, `CC(=O)NCCCC[C@@H]1NC(=O)[C@H](C(C)C)NC(=O)[C@H](CC2CCCCC2)NC(=O)[C@H](CCN)NC(=O)[C@@H](CC(C)C)NC(=O)[C@H](C)N(C)C(=O)[C@H](CCC(N)=O)NC(=O)[C@H](Cc2ccc(-c3ccccc3)cc2)NC(=O)[C@H](CC(C)C)NC(=O)[C@H](Cc2cccc(C)c2)NC(=O)[C@H](CC(=O)O)NC(=O)[C@H](Cc2ccc(C(=O)O)cc2)NC(=O)[C@H](Cc2ccc(OCC(=O)O)cc2)NC(=O)CSC[C@@H](C(=O)NCCOCCOCC(=O)NCCCCCCCCCCC(=O)O)NC1=O` [Example 2230] ({CH2CO}-Y(Carboxymethyl)[Phe(4-COOH)]D[Phe(3-Me)]L[Bip]Q[NMeA][dL][Dab][Cha]VK(Ac)C[AEEA][Aun]-OH; thioether N-14): 13 nM.

In the case of `Cc1cccc(C[C@@H]2NC(=O)[C@H](CC(=O)O)NC(=O)[C@H](Cc3ccc(C(=O)O)cc3)NC(=O)[C@H](Cc3ccc(OCC(=O)O)cc3)NC(=O)CSC[C@@H](C(=O)N[C@@H](CCN)C(=O)NCCCCCCCCCCC(=O)O)NC(=O)[C@H](CCCNC(N)=O)NC(=O)[C@H](C(C)C)NC(=O)[C@H](CC3CCCCC3)NC(=O)[C@H](CCN)NC(=O)[C@@H](CC(C)C)NC(=O)[C@H](C)N(C)C(=O)[C@H](C(C)C)NC(=O)[C@H](Cc3ccc(-c4ccccc4)cc3)NC(=O)[C@H](CC(C)C)NC2=O)c1` [Example 2294] ({CH2CO}-Y(Carboxymethyl)[Phe(4-COOH)]D[Phe(3-Me)]L[Bip]V[NMeA][dL][Dab][Cha]V[Cit]C[Dab][Aun]-OH; thioether N-14), the 50% inhibitory concentration (IC50) stood at 19.9 nM. The same measure, in the same setting: next, `Cc1cccc(C[C@@H]2NC(=O)[C@H](CC(=O)O)NC(=O)[C@H](Cc3ccc(OCC(=O)O)cc3)NC(=O)[C@H](C(C)O)NC(=O)CSC[C@@H](C(=O)NCCOCCOCC(=O)NCCCCCCCCCCC(=O)O)NC(=O)[C@H](C(C)O)NC(=O)[C@H](C(C)C)NC(=O)[C@H](CC3CCCCC3)NC(=O)[C@H](CCN)NC(=O)[C@@H](CC(C)C)NC(=O)[C@H](C)N(C)C(=O)[C@H](Cc3ccc(OCC(=O)O)cc3)NC(=O)[C@H](Cc3ccc(-c4ccccc4)cc3)NC(=O)[C@H](C(C)C)NC2=O)c1` (stereo partly drawn) [Example 2346] ({CH2CO}-[Thr(3ξ)]Y(Carboxymethyl)D[Phe(3-Me)]V[Bip]Y(Carboxymethyl)[NMeA][dL][Dab][Cha]V[Thr(3ξ)]C[AEEA][Aun]-OH; thioether N-14): 23.1 nM; `CC(=O)NCCCC[C@@H]1NC(=O)[C@H](C(C)(C)O)NC(=O)[C@H](CC2CCCCC2)NC(=O)[C@H](CCN)NC(=O)[C@@H](CC(C)C)NC(=O)[C@H](C)N(C)C(=O)[C@H](CCCNC(N)=O)NC(=O)[C@H](Cc2ccc(-c3ccccc3)cc2)NC(=O)[C@H](Cc2ccc(C(=O)O)cc2)NC(=O)[C@H](Cc2cccc(C(F)(F)F)c2)NC(=O)[C@H](CC(=O)O)NC(=O)[C@H](Cc2ccc(OCC(=O)O)cc2)NC(=O)[C@H](CN2CCOCC2)NC(=O)CSC[C@@H](C(=O)N[C@@H](CCN)C(=O)NCCOCCOCC(=O)NC(CCC(=O)NCCOCCOCC(=O)NCCCCCCCCCCCCC(=O)O)C(=O)O)NC1=O` (stereo partly drawn) [Example 1178] ({CH2CO}-[Ala(morpholin-4-yl)]Y(Carboxymethyl)D[Phe(3-CF3)][Phe(4-COOH)][Bip][Cit][NMeA][dL][Dab][Cha][Val(3-OH)]K(Ac)C[Dab][AEEA][ξγGlu][AEEA]-{NH(CH2)12COOH}; thioether N-14): 12.4 nM.

On to `CC(C)C[C@@H]1NC(=O)[C@H](Cc2c[nH]c3ccccc23)NC(=O)[C@H](CC(=O)O)NC(=O)[C@H](Cc2ccc(C(=O)O)cc2)NC(=O)[C@H](Cc2ccc(OCC(=O)O)cc2)NC(=O)CSC[C@@H](C(=O)NCCOCCOCC(=O)NCCCCCCCCCCC(=O)O)NC(=O)[C@H](C(C)O)NC(=O)[C@H](C(C)C)NC(=O)[C@H](CC2CCCCC2)NC(=O)[C@H](CCN)NC(=O)[C@@H](CC(C)C)NC(=O)[C@H](C)N(C)C(=O)[C@H](CCC(N)=O)NC(=O)[C@H](Cc2ccc(-c3ccccc3)cc2)NC1=O` (stereo partly drawn) [Example 2285] ({CH2CO}-Y(Carboxymethyl)[Phe(4-COOH)]DWL[Bip]Q[NMeA][dL][Dab][Cha]V[Thr(3ξ)]C[AEEA][Aun]-OH; thioether N-14), for which the IC50 turned out to be 48.9 nM.

The same test, now with this note: PE-labeled PD-L1-Ig 20 nM final, Jurkat-hPD-1 cells; read-out: Jurkat HPD1 PDL1 IC50.
Regarding `CC(C)C[C@H]1NC(=O)[C@H](C)N(C)C(=O)[C@H](Cc2ccc(OCC(=O)O)cc2)NC(=O)[C@H](Cc2ccc(-c3ccccc3)cc2)NC(=O)[C@H](Cc2ccc(OCC(=O)O)cc2)NC(=O)[C@H](Cc2c[nH]c3ccccc23)NC(=O)[C@H](CC(=O)O)NC(=O)[C@H](Cc2ccc(OCC(=O)O)cc2)NC(=O)[C@H](C(C)O)NC(=O)CSC[C@@H](C(=O)N[C@@H](CCN)C(=O)NCCCCCCCCCCC(=O)O)NC(=O)[C@H](CO)NC(=O)[C@H](Cc2cnc[nH]2)NC(=O)[C@H](CC2CCCCC2)NC(=O)[C@H](CCN)NC1=O` (stereo partly drawn) [Example 2428] ({CH2CO}-[Thr(3ξ)]Y(Carboxymethyl)DWY(Carboxymethyl)[Bip]Y(Carboxymethyl)[NMeA][dL][Dab][Cha]HSC[Dab][Aun]-OH; thioether N-14), the IC50 is 259 nM.

As for `CCC(C)[C@@H]1NC(=O)[C@H](Cc2ccc(-c3ccccc3)cc2)NC(=O)[C@H](C(C)C)NC(=O)[C@H](Cc2c[nH]c3ccccc23)NC(=O)[C@H](CC(=O)O)NC(=O)[C@H](Cc2ccc(OCC(=O)O)cc2)NC(=O)[C@H](Cc2ccc(OCC(=O)O)cc2)NC(=O)CSC[C@@H](C(=O)N[C@@H](CCN)C(=O)NCCOCCOCC(=O)NCCCCCCCCCCC(=O)O)NC(=O)[C@H](CCCNC(N)=O)NC(=O)[C@H](C(C)(C)O)NC(=O)[C@H](CC2CCCCC2)NC(=O)[C@H](Cc2cnc[nH]2)NC(=O)[C@@H](CC(C)C)NC(=O)[C@H](C)N(C)C1=O` (stereo partly drawn) [Example 2587] ({CH2CO}-Y(Carboxymethyl)Y(Carboxymethyl)DWV[Bip][Ile(3ξ)][NMeA][dL]H[Cha][Val(3-OH)][Cit]C[Dab][AEEA][Aun]-OH; thioether N-14), the IC50 was determined as 13.5 nM.
